Assay results published in US20210009551A1, “COMPOUNDS AND METHODS FOR TREATING FIBROSIS OR CANCER” (THE REGENTS OF THE UNIVERSITY OF CALIFORNIA, priority 2016, published 2021).

Columns and labels:
[1] = tested on: TGFβ1-induced epithelial-mesenchymal transition (EMT) in A549 adenocarcinoma cells; test: TGFβ1-induced EMT in A549 cells (image-based screen, immunoblot); format: cell-based
Method: High throughput screen and high content imaging analysis. A549 cell-based screening of inhibitors to TGFβ1-induced EMT from a bioactive small molecule library was performed in 384-well plate format and the images were captured and analyzed using GE IN Cell 2000 as described previously^16.
(§1) Immunoblot. Pulverized tissue and cells were lysed in RIP A buffer (150 mM NaCl, 50 mM Tris, pH 8.0, 1% Triton X-100, 0.5% sodium deoxycholate, 0.1% SDS, supplemented with protease and phosphatase inhibitors) and analyzed by immunoblotting. Densitometry was quantified using NIH Imaged software.

[2] = tested on: C57BL/6 mice, intratracheal bleomycin; test: Bleomycin fibrosis model; format: in vivo; details: daily gavage 100 mg/kg from day 10 after bleomycin, day 21
Method: For histological assessment of lung collagen, frozen sections of the left lung were stained using Masson's Trichrome stain kit (American MasterTech, Lodi, Calif., USA).
Bleomycin fibrosis model. Eight-week old C57BL/6 mice were intratracheally instilled with saline or 1.9 units/kg of bleomycin (Sigma-Aldrich). Mice were implanted with osmotic pumps loaded with ellagic acid salt (24 mg/kg/day, Day 10-Day 17), fed with red raspberry diet (Day 0-Day 21), or gavaged with corilagin (100 mg/kg, Day 10-Day 21). Controls were treated with control pump, control diet, or vehicle in the same formulation. The lungs were lavaged and followed by OCT embedding for imaging or snap freezing in liquid nitrogen for protein extraction or hydroxyproline assay.
Collagen content Lung or aorta collagen content was evaluated using hydroxyproline assay. Briefly, whole left lung tissue or aorta was hydrolyzed in 1 ml 12N HCl at 110° C. for 24 h and the hydroxyproline was detected by incubating with Chloramine T and p-dimethylaminobenzaldehyde and the absorbance was measured at 550 nm. Each sample was run in triplicate. Collagen content in lung or aorta tissues was expressed as micrograms of collagen per lung or aorta and was converted from micrograms of hydroxyproline.

[3] = Plasma level of corilagin, LC/MS analysis; format: in vivo, mice; details: C57BL/6, mouse, 2 hrs after the last oral dose of 100 mg/kg, day 21, read-out: average circulating level
Method: Plasma level of corilagin—LC/MS analysis. Corilagin in C57BL/6 mice two hours following last oral administration at day 21 was analyzed. Blood samples (˜500 μL/sample) were collected via cardiac puncture. Samples were placed in tubes containing heparin sodium and stored on ice until centrifuged for plasma.

[4] = target: T1, human LOXL2 (Homo sapiens, UniProt Q9Y4K0); test: Collagen crosslinking induced by recombinant LOXL2 in lung fibroblasts (Sircol assay); format: cell-based; details: primary human lung fibroblasts, 7 days
T1 sequence (Q9Y4K0 26-774): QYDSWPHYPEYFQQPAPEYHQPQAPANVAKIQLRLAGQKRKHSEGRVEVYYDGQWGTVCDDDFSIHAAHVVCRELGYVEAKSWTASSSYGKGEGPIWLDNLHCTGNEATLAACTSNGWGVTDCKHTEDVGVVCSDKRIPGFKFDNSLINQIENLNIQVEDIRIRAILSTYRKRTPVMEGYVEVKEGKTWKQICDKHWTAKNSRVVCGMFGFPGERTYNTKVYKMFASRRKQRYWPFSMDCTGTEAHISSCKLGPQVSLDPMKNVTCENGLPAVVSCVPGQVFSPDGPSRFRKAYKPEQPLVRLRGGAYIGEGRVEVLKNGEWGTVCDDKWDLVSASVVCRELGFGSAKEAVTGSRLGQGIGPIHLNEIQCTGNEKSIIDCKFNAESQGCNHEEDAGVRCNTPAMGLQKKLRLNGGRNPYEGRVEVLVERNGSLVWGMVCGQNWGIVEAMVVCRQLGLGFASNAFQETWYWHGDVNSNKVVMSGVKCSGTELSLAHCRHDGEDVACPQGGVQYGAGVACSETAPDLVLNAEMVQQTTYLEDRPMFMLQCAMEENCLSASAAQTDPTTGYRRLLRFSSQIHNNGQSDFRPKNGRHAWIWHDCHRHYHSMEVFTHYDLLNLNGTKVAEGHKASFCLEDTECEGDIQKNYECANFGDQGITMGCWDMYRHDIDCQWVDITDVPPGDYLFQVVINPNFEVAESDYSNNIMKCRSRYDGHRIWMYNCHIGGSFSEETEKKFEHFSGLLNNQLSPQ
Method: Preparation of insoluble cross-linked collagen. Fibroblasts were cultured on 10 cm dish until confluent. The medium was then changed to Dulbecco's modified Eagle's medium (DMEM) containing 5% FBS, 100 μM L-ascorbic acid with 500 kDa Dextran Sulfate at 100 μg/ml, and 50 ng/ml recombinant human LOXL2 (rhLOXL2) for 7 days^21,22. The cell layer was extracted with 0.5 M acetic acid and 0.1 mg/ml pepsin overnight at 4° C. The leftover insoluble fraction was further extracted and the insoluble cross-linked collagen measured using Sircol Insoluble Collagen Assay kit according to manufacture's instruction.

[5] = tested on: TGFβ1 signaling (p-smad3) in A549 cells; test: TGFβ1-induced p-smad generation in cells (immunoblot); format: cell-based; details: 1 μM
Method: as §1

[6] = tested on: urinary DPD/PYD after bleomycin; test: Urinary PYD/DPD measurements; format: in vivo, mice; details: 100 mg/kg from day 10
Method: Urinary PYD/DPD measurements. Pooled urine from each of 3-5 mice for each time point after bleomycin in a cohort of mice treated with vehicle or corilagin (100 mg/kg) beginning on day 10 post bleomycin were collected. Urine specimens were also collected from two cohorts of IPF patients and controls at two sites: All consenting patients with physician-established diagnosis of IPF followed in the respective ILD programs were included in sample collection. PYD/DPD levels from all the samples were measured using MicroVue EIA Assay Kit (Quidel Corp., San Diego, Calif.) along with PYD/DPD standards and the results were normalized relative to urinary creatinine. The statistical significance was analyzed using Mann-Whitney U-Test.

[7] = Bronchoalveolar lavage: immune cells and injury markers; format: in vivo; details: BALF, bleomycin or saline treated mice
Method: Bronchoalveolar lavage. After the trachea was exposed, a 20-G catheter was inserted into the trachea through a small incision. 1 ml cold PBS was instilled into the mouse lungs followed by gentle aspiration repeated for three times. All the bronchoalveolar lavage fluid (BALF) was centrifuged and cell pellet was re-suspended in erythrocyte (RBC) lysis buffer (Sigma, St. Louis) followed by re-centrifugation. Cell number was counted using hemocytometer. Cell types of BALF were determined by morphology following Diff-quick stain of cytospin slides. About 500 cells were counted for each sample in order to determine the cell types. Macrophages account for more than 80% of the cells in BALF and were collected by centrifugation. After centrifugation, the supernatant was collected to measure total protein content using the BCA assay (Pierce), while the cell pellet was lysed for immunoblotting or RNA isolation.

[8] = tested on: LOXL2-high A549 cells; test: Corilagin level in conditioned medium by LC-MS, A549; format: in vitro ADME; details: 1 μM, 5 hrs
[9] = tested on: LOXL2-low HaCaT cells; test: Corilagin level in conditioned medium by LC-MS, HaCaT; format: in vitro ADME; details: 1 μM, 5 hrs
[10] = tested on: TGFβ1 signaling (p-smad3, snail 1); test: TGFβ1 signaling in NMuMG cells expressing wild-type or mutant LOXL2; format: cell-based; details: 1 μM
Method: as §1
Site-directed mutagenesis of LOXL2. Site-directed mutagenesis was performed to generate K614N, K731R, and K759R point mutations using Phusion Site-Directed Mutagenesis Kit (Thermo Scientific, Waltham, Mass.) according to manufacturer's instructions. A pcDNA3-hLOXL2-flag plasmid containing the cDNA fragment of wild-type human LOXL2 fused with a flag tag at the C-terminus, was used as the template DNA^18. Mutations were confirmed by DNA sequencing. The primers and their complementary strands used are: K614N forward 5′-[…]-3′ (SEQ ID NO:2), K614N reverse 5′-[…]-3′(SEQ ID NO:3); K731R forward 5′-[…]-3′(SEQ ID NO:4), K731R reverse 5′-[…]-3′(SEQ ID NO:5); K759R forward 5′-[…]-3′(SEQ ID NO:6), and K759R reverse 5′-[…]-3′(SEQ ID NO:7).

IC50 ([1]; Homo sapiens, A549 cells stimulated with TGFβ1, 48 h): 50 nM | concentration at 2 h [3]: 80 nM | IC50 [4]: 10 nM | corilagin concentration in conditioned medium [8]: decreased dramatically | corilagin concentration in conditioned medium [9]: not
Structure (SMILES): O=C(O[C@@H]1O[C@@H]2COC(=O)c3cc(O)c(O)c(O)c3-c3c(cc(O)c(O)c3O)C(=O)O[C@H]([C@H]1O)[C@@H]2O)c1cc(O)c(O)c(O)c1 [corilagin, Corilagin]
inhibitory effects on EMT after knockdown of LOXL2 ([1]; LOXL2 RNAi, A549 cells, 1 μM): completely abrogated | bleomycin-induced total lung collagen, fibronectin, snail 1, and p-smad3 [2]: marked attenuation | TGFβ1-induced p-smads after longer pre-incubation ([5]; pre-incubation 3 h or 6 h): completely suppressed | effects on p-smad3 generation after knockdown of LOXL2 ([5]; A549 cells and primary lung fibroblasts, 6 h): completely blocked | increase of urinary DPD/PYD levels days 10-21 post bleomycin [6]: suppressed | immune cell numbers or markers of injury [7]: no effect | inhibition of TGFβ1 signaling in cells expressing K731R LOXL2 [10]: completely resistant
